Source: patent US8901295B2 (Institut National de la Sante et de la Recherche Medicale …, priority 2009, dated 2014)
Like-named read-outs stand apart in the source and are kept apart here.

Key:
Cyclophilin A (CypA) = Cyclophilin A (CypA) (Homo sapiens (Human), UniProt P62937); assay: Cyclophilin PPIase enzymatic assay (chymotrypsin coupled), CypA; assay type: biochemical; details: for IC50: CypA
Protocol: (§1) Cyclophilin A, B protein carrying a hexahistidine tag (His-Tag) at the C-terminus, were expressed in Escherichia coli and purified. Briefly, cultures of C41(DE3) cells were grown at 37° C. for ˜1 h until the culture reached an optical density of 0.6 at 600 nm, and induced with 1 mM isopropyl β-D-thiogalactoside for 4 h at 37° C. or overnight at 22° C. for cylophilin A and cyclophilin B, respectively. Cell pellets (1 L) were resuspended in a lysis buffer (20 mM NaH2PO4 (pH 7.8), 300 mM NaCl, 7 mM β-mercaptoethanol, 1 mg/ml lysozyme, 0.1 U/μl Desoxyribonuclease and complete protease inhibitor tablets (Roche)). The sonicated cell lysates were clarified by centrifugation at 10 000 g for 45 min at 4° C., chromatographed on a Ni-NTA column and washed with buffer: (20 mM NaH2PO4 (pH7.8), 300 mM NaCl, 50 mM imidazole, 7 mM β-mercaptoethanol, 10% glycerol). The bound protein was eluted in 1 ml fractions with buffer: (20 mM NaH2PO4 (pH7.8), 300 mM NaCl, 250 mM imidazole, 7 mM β-mercaptoethanol, 10% glycerol) and monitored by the Bradford colorimetric assay. The purity of each cyclophilin was determined by Coomassie-stained SDS-PAGE analysis.
(§2) The reaction was initiated by adding 20 μL of 3.2 mM peptide substrate (Suc-Ala-Ala-cis-Pro-Phe-pNA) in LiCl/TFE solution with rapid inversion. […] The final concentration of LiCl in the assay was 20 mM; TFE was present at a concentration of 4% (v/v). Absorbance readings were collected every 1 s by spectrophotometer. The inhibition assays of compounds were performed in the same manner as mentioned above. A 5 μL aliquot of the compounds in DMSO was added to the cyclophilin solution in the assay buffer. The assay was started by the addition of the substrate. Cyclosporine A was used as control in all measurement. The percentage inhibition of cyclophilin PPiase activity were calculated from slopes and values obtained represent an average of at least two independent measurements.

Cyclophilin D (CypD) = Cyclophilin D (CypD) (Homo sapiens, UniProt P30405, K175I); assay: Cyclophilin PPIase enzymatic assay (chymotrypsin coupled), CypD; assay type: biochemical
Cyclophilin D (CypD), sequence (P30405 30-207 K175I limits assumed): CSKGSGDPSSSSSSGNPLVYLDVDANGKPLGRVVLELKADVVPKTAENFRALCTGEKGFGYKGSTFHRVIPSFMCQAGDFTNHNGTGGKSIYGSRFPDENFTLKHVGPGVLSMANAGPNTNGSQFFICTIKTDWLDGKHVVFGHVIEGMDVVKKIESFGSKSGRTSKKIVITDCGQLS
Protocol: The protein was expressed in E. coli strain BL21(DE3). Bacteria were grown in LB medium at 37° C. and induced during 2 h with isopropyl-β-D-thiogalactopyranoside (IPTG) around OD 0.8. Cells were lysed by sonication in a buffer consisting of 50 mM Tris at pH 7.5, 2 mM EDTA and 2 mM β-mercaptoethanol (buffer A). The lysate was centrifuged at 40000 g for 30 min. The supernatant was loaded on a Q-Sepharose and S-Sepharose columns in series equilibrated with buffer A. The S-Sepharose column was washed with equilibrium buffer and bound proteins were eluted with a linear gradient from 0 to 1M NaCl.
as §2

Cyclophilin B (CypB) = Cyclophilin B (CypB) (Homo sapiens (Human), UniProt P23284); assay: Cyclophilin PPIase enzymatic assay (chymotrypsin coupled), CypB; assay type: biochemical; details: for Inhibition (%): activity test at 100 μM on CypB; for IC50: CypB
Cyclophilin B (CypB), sequence (P23284 34-216): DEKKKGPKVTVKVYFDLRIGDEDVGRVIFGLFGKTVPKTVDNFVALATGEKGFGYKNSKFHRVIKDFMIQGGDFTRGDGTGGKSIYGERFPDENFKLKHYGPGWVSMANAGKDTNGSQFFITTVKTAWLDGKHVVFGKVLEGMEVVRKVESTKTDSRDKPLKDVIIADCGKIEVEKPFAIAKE
Protocol: as §1, §2

[1] = test system: HCV genotype 1b bicistronic replicon in Huh7 cells; assay: Antiviral activity in the replicon model; assay type: cell-based; details: Hepatitis C virus, Huh-7, 72 h
Protocol: HCV replicon harboring cells were seeded at a low density of 5000 cells per well in 96-well plates. The cells were treated with increasing concentrations of the tested compounds in Dulbecco modified Eagle medium containing 10% fetal bovine serum and 1% DMSO without G418 and cultured for 3 days. Total RNA was extracted using the RNeasy 96 kit (Qiagen). […] HCV RNA levels were measured by means of […]. The results were normalized to GAPDH gene. Each data point represents the average of at least three replicates in cell culture. HCV RNA level reductions after treatment were assessed by comparing the level of HCV RNA in compound-treated cells to that of control cells treated with 1% DMSO.

Acute toxicity in mice = assay type: in vivo; details: female mice, 1, 10, 50 and 150 mg/kg, one intraperitonal injection
Protocol: The acute toxicity of F684 was evaluated in mice. In this study, female mice (n=3/group) were administered with the negative control (PBS) or F684 (1 mg/kg, 10 mg/kg, 50 mg/kg and 150 mg/kg of body weight dissolved in PBS), one time by intraperitonal injection. At the time of injection, animals were approximately 5 month old and body weights ranged from 27 to 33 g.

[2] = activity test at 100 μM on CypA, read-out: Inhibition (%)
[3] = HCV genotype 1b replicon, Huh7 cells, 3 days, HCV RNA, read-out: EC50 replicon
[4] = activity test at 100 μM on CypA

Cyclophilin A (CypA), sequence (P62937 whole entry): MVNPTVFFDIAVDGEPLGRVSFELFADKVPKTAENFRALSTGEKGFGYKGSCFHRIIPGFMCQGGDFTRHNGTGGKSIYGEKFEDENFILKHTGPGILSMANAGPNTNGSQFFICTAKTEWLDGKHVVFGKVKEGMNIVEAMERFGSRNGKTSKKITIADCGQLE

In the case of `CSc1ccccc1C1CCCN1C(=O)C(C)NC(=O)NCc1ccc(N)cc1` (centres unmarked) [Compound F714, 1-(4-aminobenzyl)-3-(1-(2-(2-(methylthio)phenyl)pyrrolidin-1-yl)-1-oxopropan-2-yl)urea], the IC50 (Cyclophilin A (CypA)) is reported as 3.1 µM and the IC50 (Cyclophilin D (CypD)) is reported as 1.1 µM.
`Nc1ccc(CNC(=O)NCC(=O)N2CCCC2)cc1` [Compound F537, 1-(4-aminobenzyl)-3-(2-pyrrolidin-1-yl-2-oxoethyl)urea] gave an inhibition at 100 µM (Cyclophilin A (CypA)) of 33.4% and an inhibition at 100 µM (Cyclophilin B (CypB)) of 24.5%.
With “2-(3-(3-acetamidobenzyl)ureido)acetate [Compound F566]” the “Inhibition (%)” value (Cyclophilin B (CypB)) was 26.5% and the “Inhibition (%)” value (Cyclophilin D (CypD); activity test at 100 μM on CypD) was 22.7%.
`CCOC(=O)CNC(=O)NCc1ccc(OC)cc1` [Compound F429, ethyl 2-(3-(4-methoxybenzyl)ureido)acetate] gave an inhibition at 1000 µM (Cyclophilin D (CypD)) of 42.1%.
In the case of `CCN(OCc1ccccc1)C(=O)CNC(=O)NCc1ccc(N)cc1` [Compound F607], the IC50 (Cyclophilin A (CypA)) is reported as 9 µM, the IC50 (Cyclophilin B (CypB)) is reported as 4.8 µM and the “Inhibition (%)” value (Cyclophilin B (CypB)) is reported as 95.3%. It also gave an IC50 (Cyclophilin D (CypD); CypD, read-out: CypD IC50) of 30 µM.
For `CSc1ccccc1C1CCCN1C(=O)CNC(=O)NCc1ccc(N)cc1` (centres unmarked) [Compound F684, 1-(4-aminobenzyl)-3-(2-(2-(2-(methylthio)phenyl)pyrrolidin-1-yl)-2-oxoethyl)urea], the IC50 (Cyclophilin A (CypA)) was 0.37 µM, the IC50 (Cyclophilin B (CypB)) was 0.65 µM and the IC50 (Cyclophilin D (CypD)) was 0.64 µM. The EC50 ([1]; read-out: EC50 replicon (μM)) was 0.8 µM, the acute toxicity (Acute toxicity in mice) was “not acutely toxic” and the “body weights, feed consumption, clinical observations or gross organ necropsy vs vehicle control” value (Acute toxicity in mice) was “No differences”. The survival (Acute toxicity in mice) was “All animals survived to scheduled sacrifice”.
With `CCOC(=O)CNC(=O)NCc1cccc(OC)c1` [Compound F512, ethyl 2-(3-(3-methoxybenzyl)ureido)acetate] the inhibition at 100 µM (Cyclophilin B (CypB)) was 16.6% and the inhibition at 100 µM (Cyclophilin D (CypD)) was 26.5%.
Work on `Nc1ccc(CNC(=O)Nc2cnc3sccn3c2=O)cc1` [Compound F608, 1-(4-aminobenzyl)-3-(5-oxo-5H-thiazolo[3,2-a]pyrimidin-6-yl)urea] yielded an inhibition at 100 µM (Cyclophilin A (CypA); [2]) of 26.3% and an inhibition at 100 µM (Cyclophilin B (CypB)) of 38.7%.
In the case of `Nc1ccc(CNC(=O)NCC(=O)NCCc2ccccc2)cc1` [Compound F547, 2-(3-(4-aminobenzyl)ureido)-N-2-phenyl-ethylacetamide], the inhibition at 100 µM (Cyclophilin A (CypA); [2]) is reported as 22.5% and the inhibition at 100 µM (Cyclophilin B (CypB)) is reported as 15.2%.
Work on `Nc1ccc(CNC(=O)NCC(=O)N2CCOC(CN3C(=O)c4ccccc4C3=O)C2)cc1` (centres unmarked) [Compound F554, 1-(4-aminobenzyl)-3-(2-(2-((1,3-dioxoisoindolin-2-yl)methyl)morpholino)-2-oxoethyl)urea] yielded an inhibition at 100 µM (Cyclophilin A (CypA); [2]) of 67.2%, an inhibition at 100 µM (Cyclophilin B (CypB)) of 70.9% and an IC50 (Cyclophilin B (CypB)) of 24.6 µM. It also gave an inhibition at 100 µM (Cyclophilin D (CypD)) of 20.9%.
`CCN(O)C(=O)CNC(=O)NCc1ccc(N)nc1` [Compound F606, 2-(3-((6-aminopyridin-3-yl)methyl)ureido)-N-hydroxy-N-ethylacetamide] showed an inhibition at 100 µM (Cyclophilin A (CypA); [2]) of 18.9% and an inhibition at 100 µM (Cyclophilin B (CypB)) of 17.3%.
`CCOC(=O)CNC(=O)NCC1CCNCC1` [Compound F509, ethyl 2-(3-(piperidin-4-ylmethyl)ureido)acetate] gave an inhibition at 100 µM (Cyclophilin D (CypD)) of 18.3%.
`COc1ccc(N(C)C(=O)CNC(=O)NCc2ccc(N)cc2)cc1` [Compound F555, 2-(3-(4-aminobenzyl)ureido)-N-4-methoxyphenyl-N-methylacetamide] showed an inhibition at 100 µM (Cyclophilin A (CypA); [2]) of 65.1% and an inhibition at 100 µM (Cyclophilin D (CypD)) of 26.1%.
In the case of `COc1ccccc1C1CCCN1C(=O)CNC(=O)NCc1ccc(N)cc1` (centres unmarked) [Compound F609, 1-(4-aminobenzyl)-3-(2-(2-(2-methoxyphenyl)pyrrolidin-1-yl)-2-oxoethyl)urea], the inhibition at 100 µM (Cyclophilin A (CypA)) is reported as 100%, the IC50 (Cyclophilin A (CypA)) is reported as 2.8 µM and the inhibition at 100 µM (Cyclophilin B (CypB)) is reported as 101%. For the same compound, the IC50 (Cyclophilin B (CypB)) was 1.2 µM, the IC50 (Cyclophilin D (CypD)) was 11.4 µM and the EC50 [1, 3] was 20 µM.
`CN(C(=O)CNC(=O)NCc1ccc(N)cc1)c1ccccc1` [Compound F557, 2-(3-(4-aminobenzyl)ureido)-N-phenyl-N-methylacetamide] gave an inhibition at 100 µM (Cyclophilin A (CypA); [2]) of 63.4% and an inhibition at 100 µM (Cyclophilin D (CypD)) of 42.9%.
With `CCOC(=O)CNC(=O)NCc1cccc(N)c1` [Compound F549, ethyl 2-(3-(3-aminobenzyl)ureido)acetate] the inhibition at 100 µM (Cyclophilin A (CypA); [2]) was 14.8%, the inhibition at 100 µM (Cyclophilin B (CypB)) was 48.9% and the inhibition at 100 µM (Cyclophilin D (CypD)) was 24.5%.
For `CCOC(=O)C(Cc1cccc(O)c1)NC(=O)NCc1ccc(N)cc1` (centres unmarked) [Compound F612, ethyl 2-(3-(4-aminobenzyl)ureido)-3-(3-hydroxyphenyl)propanoate], the inhibition at 100 µM (Cyclophilin A (CypA); [2]) was 26.3% and the inhibition at 100 µM (Cyclophilin B (CypB)) was 26.7%.
`CCOC(=O)CNC(=O)NCc1cccc(F)c1` [Compound F511, ethyl 2-(3-(3-fluorobenzyl)ureido)acetate] gave an inhibition at 100 µM (Cyclophilin D (CypD)) of 12.9%.
`CCOC(=O)C1CCCN(C(=O)CNC(=O)NCc2ccc(N)cc2)C1` (centres unmarked) [Compound F545, ethyl 1-(2-(3-(4-aminobenzyl)ureido)acetyl)piperidine-3-carboxylate] showed an inhibition at 100 µM (Cyclophilin A (CypA); [2]) of 49.2%, an inhibition at 100 µM (Cyclophilin B (CypB)) of 65.7% and an IC50 (Cyclophilin B (CypB)) of 75.1 µM.
`Nc1ccc(CNC(=O)NCC(=O)N2CCCC2c2ccccc2Cl)cc1` (centres unmarked) [Compound F673, 1-(4-aminobenzyl)-3-(2-(2-(2-chlorophenyl)pyrrolidin-1-yl)-2-oxoethyl)urea] showed an IC50 (Cyclophilin A (CypA)) of 3.4 µM and an IC50 (Cyclophilin D (CypD)) of 6.2 µM.
In the case of `CSc1ccccc1C1CCCN1C(=O)C(CC(C)C)NC(=O)NCc1ccc(N)cc1` (centres unmarked) [Compound F712, 1-(4-aminobenzyl)-3-(4-methyl-1-(2-(2-(methylthio)phenyl)pyrrolidin-1-yl)-1-oxopentan-2-yl)urea], the IC50 (Cyclophilin A (CypA)) is reported as 3.3 µM and the IC50 (Cyclophilin D (CypD)) is reported as 3 µM.
With `Nc1ccc(CNC(=O)NCC(=O)N2CCCCC2C(=O)N2CCCC2)cc1` (centres unmarked) [Compound F542] the “Inhibition (%)” value (Cyclophilin A (CypA); [4]) was 60.1%, the IC50 (Cyclophilin B (CypB)) was 36.6 µM and the “Inhibition (%)” value (Cyclophilin B (CypB)) was 58.5%.
For `Nc1ccc(CNC(=O)NCC(=O)N2CCCC2c2cccc3ccccc23)cc1` (centres unmarked) [Compound F671, 1-(4-aminobenzyl)-3-(2-(2-(naphthalen-1-yl)pyrrolidin-1-yl)-2-oxoethyl)urea], the IC50 (Cyclophilin A (CypA)) was 1.5 µM, the IC50 (Cyclophilin D (CypD)) was 1.4 µM and the EC50 [1, 3] was 4.3 µM.
Work on `CCOC(=O)C(Cc1cccc(OCc2ccccc2)c1)NC(=O)NCc1ccc(N)cc1` (centres unmarked) [Compound F611, ethyl 2-(3-(4-aminobenzyl)ureido)-3-(3-(benzyloxy)phenyl)propanoate] yielded an inhibition at 100 µM (Cyclophilin A (CypA); [2]) of 72.8% and an inhibition at 100 µM (Cyclophilin B (CypB)) of 73.3%.
With `Nc1ccc(CNC(=O)NCC(=O)N2CCOCC2)cc1` [Compound F544, 1-(4-aminobenzyl)-3-(2-morpholino-2-oxoethyl)urea] the inhibition at 100 µM (Cyclophilin A (CypA); [2]) was 12.2% and the inhibition at 100 µM (Cyclophilin B (CypB)) was 26%.
With `CCOC(=O)CNC(=O)NCc1ccc(O)c(O)c1` [Compound F548, ethyl 2-(3-(3,4-dihydroxybenzyl)ureido)acetate] the inhibition at 100 µM (Cyclophilin B (CypB)) was 20.8% and the inhibition at 100 µM (Cyclophilin D (CypD)) was 25.5%.
With `Nc1ccc(CNC(=O)NCC(=O)N2CCCCC2)cc1` [Compound F543, 1-(4-aminobenzyl)-3-(2-oxo-2-(piperin-1-yl)ethyl)urea] the “Inhibition (%)” value (Cyclophilin A (CypA); [4]) was 27.7% and the “Inhibition (%)” value (Cyclophilin B (CypB)) was 37.5%.
